Laboratory results from the NIST ThermoML archive (doi:10.1021/acs.jced.8b00236).

Experiment: mn = molality of the nth substance listed, in mol/kg
Conditions: 75 kPa, Liquid; for viscosity: Capillary tube (Ostwald / Ubbelohde) method; for speed of sound: Frequency=3 MHz, Single path-length method; for mass density: Vibrating tube method

NCC(=O)O [2-aminoacetic acid] + O
Conditions | mass density [kg/m3] | speed of sound [m/s] | viscosity [mPa·s]
288.15 K, m1 = 0.1393 | 1003.55 | 1474.2 | 1.166
288.15 K, m1 = 0.2791 | 1007.86 | 1482 | 1.185
288.15 K, m1 = 0.4196 | 1012.03 | 1489.7 | 1.205
288.15 K, m1 = 0.56 | 1016.03 | 1497.4 | 1.226
288.15 K, m1 = 0.7019 | 1019.92 | 1505 | 1.248
288.15 K, m1 = 0.8453 | 1023.68 | 1512.6 | 1.27
288.15 K, m1 = 0.9876 | 1027.24 | 1520.1 | 1.295
288.15 K, m1 = 1.132 | 1030.68 | 1527.5 | 1.318
293.15 K, m1 = 0.1393 | 1002.61 | 1490.2 | 1.025
293.15 K, m1 = 0.2791 | 1006.87 | 1497.7 | 1.044
293.15 K, m1 = 0.4196 | 1010.97 | 1505.2 | 1.064
293.15 K, m1 = 0.56 | 1014.91 | 1512.5 | 1.084
293.15 K, m1 = 0.7019 | 1018.74 | 1519.8 | 1.104
293.15 K, m1 = 0.8453 | 1022.45 | 1527 | 1.125
293.15 K, m1 = 0.9876 | 1025.96 | 1534 | 1.146
293.15 K, m1 = 1.132 | 1029.37 | 1541 | 1.166
298.15 K, m1 = 0.1393 | 1001.4 | 1504.1 | 0.912
298.15 K, m1 = 0.2791 | 1005.6 | 1511.4 | 0.929
298.15 K, m1 = 0.4196 | 1009.68 | 1518.7 | 0.946
298.15 K, m1 = 0.56 | 1013.59 | 1525.8 | 0.964
298.15 K, m1 = 0.7019 | 1017.38 | 1532.8 | 0.982
298.15 K, m1 = 0.8453 | 1021.05 | 1539.8 | 0.999
298.15 K, m1 = 0.9876 | 1024.54 | 1546.6 | 1.011
298.15 K, m1 = 1.132 | 1027.89 | 1553.3 | 1.026
303.15 K, m1 = 0.1393 | 999.949 | 1516.3 | 0.82
303.15 K, m1 = 0.2791 | 1004.11 | 1523.4 | 0.839
303.15 K, m1 = 0.4196 | 1008.15 | 1530.5 | 0.853
303.15 K, m1 = 0.56 | 1012.03 | 1537.5 | 0.869
303.15 K, m1 = 0.7019 | 1015.8 | 1544.3 | 0.885
303.15 K, m1 = 0.8453 | 1019.44 | 1551.2 | 0.901
303.15 K, m1 = 0.9876 | 1022.91 | 1557.8 | 0.913
303.15 K, m1 = 1.132 | 1026.27 | 1564.5 | 0.929
308.15 K, m1 = 0.1393 | 998.286 | 1526.7 | 0.734
308.15 K, m1 = 0.2791 | 1002.41 | 1533.6 | 0.752
308.15 K, m1 = 0.4196 | 1006.42 | 1540.5 | 0.772
308.15 K, m1 = 0.56 | 1010.28 | 1547.2 | 0.785
308.15 K, m1 = 0.7019 | 1014.04 | 1553.9 | 0.804
308.15 K, m1 = 0.8453 | 1017.7 | 1560.5 | 0.815
308.15 K, m1 = 0.9876 | 1021.16 | 1567 | 0.825
308.15 K, m1 = 1.132 | 1024.55 | 1573.4 | 0.839

NCCC(=O)O [3-aminopropanoic acid] + O
Conditions | mass density [kg/m3] | speed of sound [m/s] | viscosity [mPa·s]
288.15 K, m1 = 0.1393 | 1003.45 | 1475.7 | 1.179
288.15 K, m1 = 0.2789 | 1007.7 | 1484.8 | 1.214
288.15 K, m1 = 0.4194 | 1011.88 | 1493.8 | 1.252
288.15 K, m1 = 0.5603 | 1015.98 | 1502.7 | 1.291
288.15 K, m1 = 0.7021 | 1020 | 1511.6 | 1.332
288.15 K, m1 = 0.8451 | 1023.96 | 1520.4 | 1.372
288.15 K, m1 = 0.9881 | 1027.81 | 1529 | 1.414
288.15 K, m1 = 1.132 | 1031.61 | 1537.5 | 1.46
293.15 K, m1 = 0.1393 | 1002.51 | 1491.8 | 1.033
293.15 K, m1 = 0.2789 | 1006.72 | 1500.8 | 1.065
293.15 K, m1 = 0.4194 | 1010.86 | 1509.7 | 1.099
293.15 K, m1 = 0.5603 | 1014.91 | 1518.5 | 1.134
293.15 K, m1 = 0.7021 | 1018.9 | 1527.2 | 1.174
293.15 K, m1 = 0.8451 | 1022.82 | 1535.9 | 1.216
293.15 K, m1 = 0.9881 | 1026.64 | 1544.4 | 1.259
293.15 K, m1 = 1.132 | 1030.4 | 1552.7 | 1.307
298.15 K, m1 = 0.1393 | 1001.3 | 1505.5 | 0.9201
298.15 K, m1 = 0.2789 | 1005.48 | 1514.3 | 0.9466
298.15 K, m1 = 0.4194 | 1009.59 | 1522.9 | 0.9744
298.15 K, m1 = 0.5603 | 1013.63 | 1531.4 | 0.9995
298.15 K, m1 = 0.7021 | 1017.6 | 1539.9 | 1.034
298.15 K, m1 = 0.8451 | 1021.51 | 1548.2 | 1.062
298.15 K, m1 = 0.9881 | 1025.34 | 1556.4 | 1.1
298.15 K, m1 = 1.132 | 1029.1 | 1564.5 | 1.146
303.15 K, m1 = 0.1393 | 999.877 | 1517.7 | 0.824
303.15 K, m1 = 0.2789 | 1004.02 | 1526.1 | 0.8427
303.15 K, m1 = 0.4194 | 1008.09 | 1534.5 | 0.8667
303.15 K, m1 = 0.5603 | 1012.08 | 1542.8 | 0.8942
303.15 K, m1 = 0.7021 | 1016 | 1550.9 | 0.9256
303.15 K, m1 = 0.8451 | 1019.86 | 1559 | 0.959
303.15 K, m1 = 0.9881 | 1023.63 | 1566.9 | 1.001
303.15 K, m1 = 1.132 | 1027.33 | 1574.7 | 1.042
308.15 K, m1 = 0.1393 | 998.23 | 1527.9 | 0.733
308.15 K, m1 = 0.2789 | 1002.34 | 1536 | 0.7526
308.15 K, m1 = 0.4194 | 1006.39 | 1544 | 0.7692
308.15 K, m1 = 0.5603 | 1010.35 | 1551.9 | 0.7923
308.15 K, m1 = 0.7021 | 1014.25 | 1559.7 | 0.8219
308.15 K, m1 = 0.8451 | 1018.1 | 1567.4 | 0.8509
308.15 K, m1 = 0.9881 | 1021.85 | 1574.9 | 0.8756
308.15 K, m1 = 1.132 | 1025.53 | 1582.3 | 0.9126

NCCCC(=O)O [4-aminobutanoic acid] + O
Conditions | mass density [kg/m3] | speed of sound [m/s] | viscosity [mPa·s]
288.15 K, m1 = 0.1389 | 1003.34 | 1478.5 | 1.204
288.15 K, m1 = 0.2788 | 1007.5 | 1490.3 | 1.252
288.15 K, m1 = 0.4194 | 1011.57 | 1501.8 | 1.313
288.15 K, m1 = 0.56 | 1015.51 | 1513 | 1.376
288.15 K, m1 = 0.702 | 1019.39 | 1523.9 | 1.452
288.15 K, m1 = 0.8449 | 1023.19 | 1534.5 | 1.515
288.15 K, m1 = 0.9892 | 1026.91 | 1544.8 | 1.591
288.15 K, m1 = 1.132 | 1030.5 | 1554.5 | 1.672
293.15 K, m1 = 0.1389 | 1002.43 | 1494.4 | 1.054
293.15 K, m1 = 0.2788 | 1006.57 | 1506 | 1.098
293.15 K, m1 = 0.4194 | 1010.61 | 1517.4 | 1.148
293.15 K, m1 = 0.56 | 1014.53 | 1528.5 | 1.206
293.15 K, m1 = 0.702 | 1018.37 | 1539.6 | 1.265
293.15 K, m1 = 0.8449 | 1022.12 | 1550.5 | 1.325
293.15 K, m1 = 0.9892 | 1025.79 | 1561.2 | 1.393
293.15 K, m1 = 1.132 | 1029.32 | 1571.5 | 1.464
298.15 K, m1 = 0.1389 | 1001.25 | 1508.1 | 0.936
298.15 K, m1 = 0.2788 | 1005.35 | 1519.3 | 0.975
298.15 K, m1 = 0.4194 | 1009.36 | 1530.3 | 1.022
298.15 K, m1 = 0.56 | 1013.22 | 1541.2 | 1.068
298.15 K, m1 = 0.702 | 1017.01 | 1551.9 | 1.125
298.15 K, m1 = 0.8449 | 1020.7 | 1562.2 | 1.178
298.15 K, m1 = 0.9892 | 1024.31 | 1572.5 | 1.243
298.15 K, m1 = 1.132 | 1027.75 | 1582.3 | 1.307
303.15 K, m1 = 0.1389 | 999.81 | 1520.1 | 0.835
303.15 K, m1 = 0.2788 | 1003.88 | 1530.9 | 0.874
303.15 K, m1 = 0.4194 | 1007.84 | 1541.6 | 0.91
303.15 K, m1 = 0.56 | 1011.67 | 1552.1 | 0.955
303.15 K, m1 = 0.702 | 1015.43 | 1562.4 | 0.994
303.15 K, m1 = 0.8449 | 1019.1 | 1572.4 | 1.037
303.15 K, m1 = 0.9892 | 1022.68 | 1582.3 | 1.095
303.15 K, m1 = 1.132 | 1026.12 | 1591.8 | 1.156
308.15 K, m1 = 0.1389 | 998.155 | 1530.4 | 0.753
308.15 K, m1 = 0.2788 | 1002.19 | 1540.9 | 0.788
308.15 K, m1 = 0.4194 | 1006.12 | 1551.3 | 0.822
308.15 K, m1 = 0.56 | 1009.94 | 1561.4 | 0.853
308.15 K, m1 = 0.702 | 1013.68 | 1571.3 | 0.894
308.15 K, m1 = 0.8449 | 1017.35 | 1581 | 0.94
308.15 K, m1 = 0.9892 | 1020.93 | 1590.6 | 0.991
308.15 K, m1 = 1.132 | 1024.37 | 1599.8 | 1.041
